Source: patent publication US20230027026A1, “FUSED PYRIMIDINE COMPOUNDS, COMPOSITIONS AND MEDICINAL APPLICATIONS THEREOF” (JUBILANT BIOSYS LIMITED, priority 2019, published 2023)

Legend:
EGFR (T790M/L858R) = biological target: T1, EGFR (T790M/L858R) (Homo sapiens, UniProt P00533, L858R/T790M); experiment: EGFR L858R/T790M enzyme inhibition assay (HTRF); type: biochemical; settings: 5 μM ATP, 60 min, read-out: EGFR_L858R T790M_IC50_nM
T1 construct: GST; purchased Proqinase
Summary of the method: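 HTRF kinase assay with 2.5 nM GST-EGFR T790M/L858R, 0.5 μM biotinylated gastrin peptide and 5 μM ATP in HEPES pH 7.4 with Mg/Mn, 60 min at room temperature; compounds from 10 μM top. Phosphotyrosine detected by Eu anti-pTyr/SA-APC; IC50 from % inhibition.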

[1] = tested on: H1975 cells (L858R_T790M mutant); experiment: H1975 proliferation assay; type: cell-based; settings: Homo sapiens, NCI-H1975; read-out: Proliferation_Assay H1975 cells-EC50_nM L858R_T790M_mutant
A431 cells = experiment: Cellular proliferation (Alamar Blue) assay, A431; type: cell-based; settings: Homo sapiens, A-431; A431 cells, 72 hr, Alamar Blue; read-out: A431 IC50
Summary of the method: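 Seventy-two-hour growth assay with 3-fold compound titration (final 10–0.0005 μM) and Alamar Blue fluorescence end point, ex 540/em 590 nm.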

[2] = biological target: EGFR (A767_dupASV) expressing Ba/F3 stable cell line (Homo sapiens, UniProt P00533, DUP767-769, cells depend on it); experiment: Cellular proliferation (Alamar Blue) assay, EGFR A767_dupASV Ba/F3; type: cell-based; settings: EGFR A767_dupASV Ba/F3, 72 hr, read-out: A767 IC50
Summary of the method: (§1)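 Fluorescence read-out (ex 540/em 590 nm) after 3 h Alamar Blue incubation, following 72 h compound exposure at 37 °C, 5% CO2. Final compound range 10–0.0005 μM, 3-fold steps; Ba/F3 cells plated 15,000/well in RPMI + 10% FBS overnight beforehand.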

[3] = biological target: EGFR(D770_N771insSVD) expressing Ba/F3 stable cell line (Homo sapiens, UniProt P00533, DUP768-770, cells depend on it); experiment: Cellular proliferation (Alamar Blue) assay, EGFR D770_N771insSVD Ba/F3; type: cell-based; settings: EGFR D770_N771insSVD Ba/F3, 72 hr, read-out: D770 IC50
Summary of the method: as §1

[4] = biological target: HER2 (A775_G776insYVMA) expressing Ba/F3 stable cell line (Homo sapiens, UniProt P04626, DUP772-775, cells depend on it); experiment: Cellular proliferation (Alamar Blue) assay, HER2 YVMA Ba/F3; type: cell-based; settings: HER2 A775_G776insYVMA Ba/F3, 72 hr, read-out: YVMA IC50
Summary of the method: as §1

BT-474 cells = experiment: Cellular proliferation (Alamar Blue) assay, BT-474; type: cell-based; settings: Homo sapiens
Description: (§2) Example 3: Cellular Proliferation (Alamar Blue) Assays
(§3) • 1. EGFR(D770_N771insSVD) expressing Ba/F3 stable cell line • 2. EGFR (A767_dupASV) expressing Ba/F3 stable cell line • 3. A431 cells • 4. BTER2 (A775_G776insYVMA) expressing Ba/F3 stable cell line • 5. BTER2 (WT) expressing Ba/F3 stable cell line • 6. BT-474 cells
(§4) • 1. Seed cells at 5000 for A431 and 15,000 cells for Ba/F3 in 100 μL/well in complete media (for A431: DMEM with 10% FBS and for Ba/F3 cells: RPMI with 10% FBS) in 96-well tissue culture plate. Leave outer wells without cells for background measurements. Incubate at 37 degree Celsius in 5% CO2 humidified incubator for 16-18 hours. • 2. Add 0.025 ml of 5× concentration compound dilution or DMSO control. Final compound concentration range is 10-0.0005 μM prepared in 3-fold serial dilutions. Incubate for 72 hr at 37 degree Celsius in […] humidified incubator. • 3. Add 0.0125 mL Alamar Blue™ reagent to each well with multi-channel pipette and tap gently on each side of the plate to mix. Incubate for 3 hours at 37 degree Celsius in […] humidified incubator. • 4. Read plates on fluorescence reader (Tecan Spark Control, Device: Spark, Serial #: 1801006040) at 540 nm excitation, 590 nm emission wavelength. • 5. Data analysis was performed using XLfit 5.5.0.5.

[5] = biological target: HER2 (WT) expressing Ba/F3 stable cell line (Homo sapiens, UniProt P04626); experiment: Cellular proliferation (Alamar Blue) assay, HER2 WT Ba/F3; type: cell-based; settings: HER2 WT Ba/F3, 72 hr, read-out: HER2 WT Ba/F3 IC50
Description: as §2, §3, §4

Sequence of HER2 (A775_G776insYVMA) expressing Ba/F3 stable cell line (P04626 with tags, fused parts or gaps DUP772-775): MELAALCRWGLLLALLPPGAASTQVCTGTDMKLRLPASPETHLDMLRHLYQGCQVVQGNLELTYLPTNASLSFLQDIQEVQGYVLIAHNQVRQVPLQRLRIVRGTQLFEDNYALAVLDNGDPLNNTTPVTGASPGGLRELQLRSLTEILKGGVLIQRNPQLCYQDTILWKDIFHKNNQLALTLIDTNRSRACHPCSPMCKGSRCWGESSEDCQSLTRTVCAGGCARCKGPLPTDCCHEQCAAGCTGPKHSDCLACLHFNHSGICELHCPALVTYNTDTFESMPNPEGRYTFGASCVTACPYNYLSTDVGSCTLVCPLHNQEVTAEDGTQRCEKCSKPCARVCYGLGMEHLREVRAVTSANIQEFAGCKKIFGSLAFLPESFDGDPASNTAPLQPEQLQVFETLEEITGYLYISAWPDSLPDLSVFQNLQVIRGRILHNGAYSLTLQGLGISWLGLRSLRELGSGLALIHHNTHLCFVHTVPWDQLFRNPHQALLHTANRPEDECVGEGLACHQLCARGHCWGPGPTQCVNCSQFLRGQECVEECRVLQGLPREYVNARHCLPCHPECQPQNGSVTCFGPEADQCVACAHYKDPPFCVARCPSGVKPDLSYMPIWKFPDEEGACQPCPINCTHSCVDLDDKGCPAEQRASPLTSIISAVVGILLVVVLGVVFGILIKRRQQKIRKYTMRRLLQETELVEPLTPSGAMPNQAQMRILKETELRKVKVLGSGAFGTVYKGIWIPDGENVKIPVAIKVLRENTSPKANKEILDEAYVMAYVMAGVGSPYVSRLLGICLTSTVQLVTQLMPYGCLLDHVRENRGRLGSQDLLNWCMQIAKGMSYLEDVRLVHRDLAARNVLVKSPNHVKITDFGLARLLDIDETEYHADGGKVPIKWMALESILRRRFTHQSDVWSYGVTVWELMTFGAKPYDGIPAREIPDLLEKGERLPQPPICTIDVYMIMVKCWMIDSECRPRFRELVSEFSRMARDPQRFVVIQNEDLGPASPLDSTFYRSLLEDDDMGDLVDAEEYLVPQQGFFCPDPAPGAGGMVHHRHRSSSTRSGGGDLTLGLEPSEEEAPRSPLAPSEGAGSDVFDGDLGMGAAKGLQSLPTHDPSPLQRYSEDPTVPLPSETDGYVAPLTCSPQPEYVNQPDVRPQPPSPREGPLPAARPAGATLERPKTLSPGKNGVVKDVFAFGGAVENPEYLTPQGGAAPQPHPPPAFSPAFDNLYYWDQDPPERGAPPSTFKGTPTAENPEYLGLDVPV
Sequence of EGFR(D770_N771insSVD) expressing Ba/F3 stable cell line (P00533 with tags, fused parts or gaps DUP768-770): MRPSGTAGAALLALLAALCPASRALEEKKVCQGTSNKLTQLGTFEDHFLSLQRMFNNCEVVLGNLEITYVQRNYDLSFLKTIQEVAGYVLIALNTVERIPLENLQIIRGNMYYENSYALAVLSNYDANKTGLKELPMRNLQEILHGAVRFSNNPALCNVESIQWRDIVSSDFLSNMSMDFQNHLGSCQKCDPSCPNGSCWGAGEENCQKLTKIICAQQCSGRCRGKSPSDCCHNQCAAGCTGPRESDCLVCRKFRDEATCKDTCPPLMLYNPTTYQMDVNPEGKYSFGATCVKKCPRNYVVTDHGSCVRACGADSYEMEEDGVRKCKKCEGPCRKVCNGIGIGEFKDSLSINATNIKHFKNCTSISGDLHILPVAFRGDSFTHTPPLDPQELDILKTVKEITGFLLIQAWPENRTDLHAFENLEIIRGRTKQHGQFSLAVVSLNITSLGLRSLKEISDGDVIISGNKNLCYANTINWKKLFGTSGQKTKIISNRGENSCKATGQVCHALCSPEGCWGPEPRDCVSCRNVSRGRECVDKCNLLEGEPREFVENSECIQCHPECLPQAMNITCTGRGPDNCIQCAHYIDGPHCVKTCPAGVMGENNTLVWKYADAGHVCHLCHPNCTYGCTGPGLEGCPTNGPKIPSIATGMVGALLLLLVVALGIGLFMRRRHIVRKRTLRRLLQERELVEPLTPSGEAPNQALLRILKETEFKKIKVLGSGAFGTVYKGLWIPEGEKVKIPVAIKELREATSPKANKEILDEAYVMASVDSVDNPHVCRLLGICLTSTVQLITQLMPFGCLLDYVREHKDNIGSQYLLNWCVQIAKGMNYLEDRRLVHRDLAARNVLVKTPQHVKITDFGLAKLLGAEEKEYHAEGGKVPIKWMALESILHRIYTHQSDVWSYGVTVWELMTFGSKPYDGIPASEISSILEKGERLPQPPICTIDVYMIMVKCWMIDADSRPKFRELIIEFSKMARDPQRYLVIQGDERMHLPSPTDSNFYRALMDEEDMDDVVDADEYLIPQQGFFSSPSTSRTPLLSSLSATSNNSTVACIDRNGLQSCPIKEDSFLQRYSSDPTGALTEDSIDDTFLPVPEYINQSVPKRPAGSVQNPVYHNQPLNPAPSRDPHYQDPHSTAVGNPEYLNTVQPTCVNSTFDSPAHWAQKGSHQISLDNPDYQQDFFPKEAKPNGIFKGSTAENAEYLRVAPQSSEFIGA
T1 sequence (P00533 25-1210 T790M/L858R): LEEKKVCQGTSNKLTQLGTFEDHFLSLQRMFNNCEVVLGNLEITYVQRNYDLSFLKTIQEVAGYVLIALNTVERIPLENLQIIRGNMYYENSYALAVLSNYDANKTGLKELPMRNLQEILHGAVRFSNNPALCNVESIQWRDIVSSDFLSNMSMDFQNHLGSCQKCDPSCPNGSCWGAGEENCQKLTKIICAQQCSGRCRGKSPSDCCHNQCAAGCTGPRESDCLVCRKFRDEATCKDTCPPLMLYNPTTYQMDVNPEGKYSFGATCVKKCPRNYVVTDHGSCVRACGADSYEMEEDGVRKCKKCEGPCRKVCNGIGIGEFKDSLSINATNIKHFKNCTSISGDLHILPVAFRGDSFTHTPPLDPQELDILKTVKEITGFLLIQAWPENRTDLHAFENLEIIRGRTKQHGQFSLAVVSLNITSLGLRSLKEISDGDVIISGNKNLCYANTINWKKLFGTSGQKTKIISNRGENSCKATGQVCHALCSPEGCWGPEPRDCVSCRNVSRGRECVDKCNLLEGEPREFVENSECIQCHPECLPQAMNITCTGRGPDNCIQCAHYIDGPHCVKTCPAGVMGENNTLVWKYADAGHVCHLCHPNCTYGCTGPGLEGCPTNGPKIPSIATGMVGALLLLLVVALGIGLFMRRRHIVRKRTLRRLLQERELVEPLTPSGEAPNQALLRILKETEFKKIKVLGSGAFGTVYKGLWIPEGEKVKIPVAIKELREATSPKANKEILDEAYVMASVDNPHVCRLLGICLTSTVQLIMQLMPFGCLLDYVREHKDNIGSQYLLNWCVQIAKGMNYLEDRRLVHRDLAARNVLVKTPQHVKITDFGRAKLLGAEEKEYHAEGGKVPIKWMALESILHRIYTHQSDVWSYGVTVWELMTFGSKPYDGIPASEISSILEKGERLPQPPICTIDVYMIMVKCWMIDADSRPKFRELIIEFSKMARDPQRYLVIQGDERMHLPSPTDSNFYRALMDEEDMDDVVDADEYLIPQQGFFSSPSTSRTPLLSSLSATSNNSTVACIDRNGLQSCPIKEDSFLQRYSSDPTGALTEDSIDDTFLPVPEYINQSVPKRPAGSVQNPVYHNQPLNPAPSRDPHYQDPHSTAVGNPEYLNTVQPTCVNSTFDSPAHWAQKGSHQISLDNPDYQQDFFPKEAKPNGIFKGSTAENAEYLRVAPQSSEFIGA
Sequence of EGFR (A767_dupASV) expressing Ba/F3 stable cell line (P00533 with tags, fused parts or gaps DUP767-769): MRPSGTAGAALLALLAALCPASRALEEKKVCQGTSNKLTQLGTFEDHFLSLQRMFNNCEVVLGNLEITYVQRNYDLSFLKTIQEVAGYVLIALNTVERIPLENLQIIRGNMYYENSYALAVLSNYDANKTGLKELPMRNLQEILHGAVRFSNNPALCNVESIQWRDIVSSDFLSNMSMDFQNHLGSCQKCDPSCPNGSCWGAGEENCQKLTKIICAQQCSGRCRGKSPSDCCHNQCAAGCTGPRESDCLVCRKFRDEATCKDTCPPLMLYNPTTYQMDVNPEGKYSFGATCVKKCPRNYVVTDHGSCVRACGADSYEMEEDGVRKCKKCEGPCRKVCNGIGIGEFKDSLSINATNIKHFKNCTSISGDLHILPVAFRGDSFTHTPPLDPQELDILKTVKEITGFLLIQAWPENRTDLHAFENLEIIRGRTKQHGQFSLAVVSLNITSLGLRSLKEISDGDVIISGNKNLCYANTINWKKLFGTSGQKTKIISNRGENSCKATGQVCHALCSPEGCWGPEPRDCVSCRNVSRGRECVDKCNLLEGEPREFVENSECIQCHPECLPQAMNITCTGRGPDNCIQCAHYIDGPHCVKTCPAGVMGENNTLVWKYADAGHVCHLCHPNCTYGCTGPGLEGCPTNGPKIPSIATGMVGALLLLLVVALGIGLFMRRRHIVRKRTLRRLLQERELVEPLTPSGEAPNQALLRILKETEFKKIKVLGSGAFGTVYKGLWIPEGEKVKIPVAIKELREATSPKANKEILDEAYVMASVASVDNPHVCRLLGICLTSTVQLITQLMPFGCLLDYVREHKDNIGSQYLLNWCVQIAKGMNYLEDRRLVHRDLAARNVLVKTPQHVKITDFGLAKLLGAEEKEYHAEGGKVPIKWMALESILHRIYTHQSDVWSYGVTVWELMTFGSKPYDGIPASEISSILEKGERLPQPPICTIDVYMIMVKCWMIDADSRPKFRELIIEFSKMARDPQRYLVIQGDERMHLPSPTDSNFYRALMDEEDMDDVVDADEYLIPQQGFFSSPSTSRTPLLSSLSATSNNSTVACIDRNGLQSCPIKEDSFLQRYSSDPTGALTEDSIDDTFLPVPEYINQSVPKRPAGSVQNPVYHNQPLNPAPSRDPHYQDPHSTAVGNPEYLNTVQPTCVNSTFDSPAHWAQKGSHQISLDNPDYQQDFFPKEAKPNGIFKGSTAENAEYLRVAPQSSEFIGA

IC50 (EGFR (T790M/L858R)) [nM]	EC50 [1] [nM]	IC50 (A431 cells) [nM]	GI50 [2] [nM]	GI50 [3] [nM]	GI50 [4] [nM]	IC50 (BT-474 cells) [nM]	GI50 [5] [nM]	SMILES
0.4	6.8	65	14	4	9.9	7.7	< 0.5	C=CC(=O)Nc1cccc(N2C(=O)N(Cc3ccccc3)Cc3cnc(Nc4cnn(C)c4)nc32)c1 [Compound 1, N-(3-(3-benzyl-7-((1-methyl-1H-pyrazol-4-yl)amino)-2-oxo-3,4-dihydropyrimido[4,5-d]pyrimidin-1(2H)-yl)phenyl)acrylamide]
2	1.8	77	10	6	23	–	–	C=CC(=O)Nc1cccc(N2C(=O)N(Cc3ccccc3)Cc3cnc(Nc4cnn(CCOC)c4)nc32)c1 [Compound 15, N-(3-(3-benzyl-7-((1-(2-methoxyethyl)-1H-pyrazol-4-yl)amino)-2-oxo-3,4-dihydropyrimido[4,5-d]pyrimidin-1(2H)-yl)phenyl)acrylamide]
1	2	595	34	35	14.9	4.1	0.7	CN(C)C/C=C/C(=O)Nc1cccc(N2C(=O)N(Cc3ccccc3)Cc3cnc(Nc4cn(C)nc4Cl)nc32)c1 [Compound 20, (E)-N-(3-(3-benzyl-7-((3-chloro-1-methyl-1H-pyrazol-4-yl)amino)-2-oxo-3,4-dihydropyrimido[4,5-d]pyrimidin-1(2H)-yl)phenyl)-4-(dimethylamino)but-2-enamide]
7.8	79	2170	12	55	154	–	–	CN(C)C/C=C/C(=O)Nc1cccc(N2C(=O)N(c3ccccc3)Cc3cnc(Nc4cn(C)nc4Cl)nc32)c1 [Compound 35, (E)-N-(3-(7-((3-chloro-1-methyl-1H-pyrazol-4-yl)amino)-2-oxo-3-phenyl-3,4-dihydropyrimido[4,5-d]pyrimidin-1(2H)-yl)phenyl)-4-(dimethylamino)but-2-enamide]
2.6	3.7	1700	14	16	67	–	–	C=CC(=O)Nc1cccc(N2C(=O)N(Cc3ccccc3)Cc3cnc(Nc4ccc(N5CCOCC5)nc4)nc32)c1 [Compound 46, N-(3-(3-benzyl-7-((6-morpholinopyridin-3-yl)amino)-2-oxo-3,4-dihydropyrimido[4,5-d]pyrimidin-1(2H)-yl)phenyl)acrylamide]
0.6	2.1	≥ 10000	351	476	178	–	–	CN(C)C/C=C/C(=O)Nc1cccc(N2C(=O)N(Cc3ccccc3)Cc3cnc(Nc4cnn(C)c4)nc32)c1 [Compound 49, (E)-N-(3-(3-benzyl-7-((1-methyl-1H-pyrazol-4-yl)amino)-2-oxo-3,4-dihydropyrimido[4,5-d]pyrimidin-1(2H)-yl)phenyl)-4-(dimethylamino)but-2-enamide]
